Here are results for eight compounds from ChEMBL document CHEMBL1201862, “PubChem BioAssay data set” (2004).

Some test systems named below: HT-29; T47D; SF-539; HCC 2998; 786-0; MDA-N; ACHN; SNB-75; SK-MEL-2; K562; OVCAR-8; MDA-MB-435; NCI-H522; SF-268; MDA-MB-231; A498; DU-145; SF-295; KM12; NCI/ADR-RES.
Common to all, as to assay: growth of human tumour cells (NCI), 48 h

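Tested at 5 concentrations; 48 h exposure; 96-well plates; endpoints linearly interpolated, else capped at highest concentration. At the GI50, growth is halved.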 Calls of active or inactive are those of the source. Cut-off read from the data, not from the text of the source: active = GI50 up to about 1.1 µM and inactive = higher. A value given as a limit tells only on which side of the number the result lay.

In the case of `O=C(O)CC[N+]1=CCC(c2ccccc2)(c2ccccc2)O1`, the GI50 in the assay with HT-29, with T47D, in the assay on SF-539, in the assay on HCC 2998, with 786-0 and in the assay on MDA-N was > 100 µM (inactive) in each case. Besides, the GI50 in the assay on ACHN is > 100 µM (inactive); in the assay on SNB-75 it was 44.1 µM (inactive); with SK-MEL-2, > 100 µM (inactive); in the assay with K562, > 100 µM (inactive); in the assay on OVCAR-8, > 100 µM (inactive); in the assay with MDA-MB-435 it was > 100 µM (inactive). In addition, the GI50 in the assay on NCI-H522, in the assay on SF-268, in the assay with MDA-MB-231, with A498, with DU-145 and in the assay with SF-295 was > 100 µM (inactive) in each case.
`CC(C)COP(C)(=O)C(N)(C(F)(F)F)C(F)(F)F` (stereo not drawn): the GI50 in the assay with HT-29, in the assay with T47D, with SF-539, in the assay with HCC 2998, in the assay on 786-0 and with MDA-N was > 100 µM (inactive) each time. Moreover, the GI50 with KM12 was > 100 µM (inactive); in the assay with ACHN, > 100 µM (inactive); in the assay with SNB-75, 7.78 µM (inactive); with SK-MEL-2 it was > 100 µM (inactive); in the assay on K562 it was > 100 µM (inactive); in the assay on OVCAR-8 it was > 100 µM (inactive). Also, the GI50 in the assay with MDA-MB-435, in the assay on NCI/ADR-RES, with SF-268, in the assay on MDA-MB-231, in the assay with DU-145 and with SF-295 was > 100 µM (inactive) throughout.
In the case of `COC(=O)CNC(=O)Nc1cc(N2C(=O)ON3C2C(C)(C)N(O)C3(C)C)ccc1C` (stereo not drawn), the GI50 with HT-29, in the assay on T47D, in the assay with SF-539, with HCC 2998, with 786-0 and in the assay on MDA-N was > 100 µM (inactive) in each case. The GI50 with KM12 was > 100 µM (inactive); in the assay with ACHN it was > 100 µM (inactive); with SNB-75, > 100 µM (inactive); in the assay on SK-MEL-2, 59.4 µM (inactive); in the assay on K562, > 100 µM (inactive); with OVCAR-8 it was > 100 µM (inactive). Moreover, the GI50 with MDA-MB-435 was > 100 µM (inactive); in the assay on NCI-H522, > 100 µM (inactive); in the assay with NCI/ADR-RES it was > 100 µM (inactive); in the assay with SF-268, > 100 µM (inactive); in the assay on MDA-MB-231, > 100 µM (inactive); in the assay with SF-295 it was 55 µM (inactive).
As to `COc1ccccc1NC(=O)C(C#N)=C(SC)SC`, the GI50 in the assay with HT-29 is > 100 µM (inactive); in the assay with T47D, 30.2 µM (inactive); in the assay on SF-539 it was > 100 µM (inactive); with HCC 2998, > 100 µM (inactive); in the assay on 786-0, > 100 µM (inactive); in the assay with MDA-N, > 100 µM (inactive). In addition, the GI50 with KM12 is 6.78 µM (inactive); in the assay on ACHN it was > 100 µM (inactive); with SK-MEL-2 it was > 100 µM (inactive); in the assay on K562, > 100 µM (inactive); in the assay with MDA-MB-435, > 100 µM (inactive); in the assay on NCI-H522 it was > 100 µM (inactive). Also, the GI50 in the assay on SF-268, in the assay with MDA-MB-231, in the assay on A498, in the assay with DU-145 and in the assay on SF-295 was > 100 µM (inactive) each time.
Regarding `CC[C@@]1(O)C[C@H](OC2CC(N(C)C)C(OC3CC(O)C(OC4CCC(=O)C(C)O4)C(C)O3)C(C)O2)c2c(cc3c(c2O)C(=O)c2c(O)ccc(O)c2C3=O)[C@H]1C(=O)OC` (stereo partly drawn), the GI50 in the assay on HT-29 was 4.83e-05 µM (active); in the assay with T47D, 0.000773 µM (active); with SF-539, 0.000114 µM (active); in the assay with 786-0, < 0.01 µM (active); in the assay with MDA-N it was 0.000427 µM (active); in the assay with KM12 it was 8.77e-05 µM (active). For the same compound, the GI50 in the assay on ACHN is 5.36e-05 µM (active); in the assay with SNB-75, 0.000105 µM (active); in the assay on SK-MEL-2 it was 7.87e-05 µM (active); in the assay on K562, 8.83e-05 µM (active); with OVCAR-8, 0.00233 µM (active); in the assay with MDA-MB-435 it was 0.000929 µM (active). The GI50 in the assay on NCI-H522 was 5.28e-05 µM (active); in the assay with SF-268 it was 0.000132 µM (active); in the assay with MDA-MB-231, 0.00288 µM (active); in the assay on DU-145 it was 0.00173 µM (active); in the assay with SF-295, 6.81e-05 µM (active).
Regarding `Cc1ccccc1Nc1nc2c(s1)C(=O)c1ccccc1C2=O`, the GI50 was 19.1 µM (inactive) in the assay on HT-29; 4.53 µM (inactive) in the assay on T47D; 5.73 µM (inactive) in the assay with SF-539; 17.7 µM (inactive) in the assay with HCC 2998; 2.95 µM (inactive) in the assay on 786-0; 1.95 µM (inactive) in the assay with MDA-N. In addition, the GI50 is 9.38 µM (inactive) in the assay on KM12; 4.95 µM (inactive) in the assay on ACHN; 15.3 µM (inactive) in the assay with SNB-75; 16.7 µM (inactive) in the assay on SK-MEL-2; 3.07 µM (inactive) with K562; 2.86 µM (inactive) in the assay with OVCAR-8. Moreover, the GI50 with NCI-H522 is 2.86 µM (inactive); in the assay with SF-268, 4.33 µM (inactive); in the assay with MDA-MB-231, 3.41 µM (inactive); with A498, 22.4 µM (inactive); in the assay with DU-145, 6.67 µM (inactive); in the assay with SF-295 it was 18 µM (inactive).
Consider `O=C(O)CNn1c(SCC(=O)O)nnc(/C=C/c2c(O)ccc3ccccc23)c1=O`, for which the GI50 was 41.9 µM (inactive) in the assay on HT-29; 19.5 µM (inactive) with T47D; > 100 µM (inactive) in the assay with SF-539; > 100 µM (inactive) in the assay on HCC 2998; 30.3 µM (inactive) with 786-0; 48.4 µM (inactive) with MDA-N. In addition, the GI50 in the assay with KM12 was 31.6 µM (inactive); in the assay on ACHN, 33.8 µM (inactive); in the assay with SK-MEL-2 it was 61.8 µM (inactive); with K562 it was 25.5 µM (inactive); with OVCAR-8, 3.79 µM (inactive); in the assay on MDA-MB-435, 75.7 µM (inactive). The GI50 was 29.8 µM (inactive) in the assay on NCI-H522; 15 µM (inactive) with NCI/ADR-RES; 24.4 µM (inactive) in the assay on SF-268; 32.7 µM (inactive) with A498; 3.16 µM (inactive) in the assay with DU-145; 3.89 µM (inactive) in the assay with SF-295.
Take `COc1ccc(-c2c(N)n(-c3cccc(C(=O)O)c3)c(=O)c3cc([N+](=O)[O-])ccc23)cc1`: the GI50 in the assay with HT-29, with T47D, in the assay on SF-539, in the assay on HCC 2998, with 786-0 and in the assay on MDA-N was > 100 µM (inactive) in each case. For the same compound, the GI50 in the assay on KM12, in the assay with ACHN, in the assay with SNB-75, with SK-MEL-2, in the assay on K562 and in the assay with OVCAR-8 was > 100 µM (inactive) throughout. The GI50 with MDA-MB-435, with NCI-H522, with NCI/ADR-RES, with SF-268, in the assay on A498 and with DU-145 was > 100 µM (inactive) in each case. In addition, the GI50 in the assay with SF-295 was > 100 µM (inactive).
